Experimental data published in patent EP4768499A1, “MACROCYCLIC PEPTIDE COMPOUND HAVING CELL MEMBRANE PERMEABILITY AND METABOLIC STABILITY, AND LIBRARY CONTAINING SAME” (Chugai Seiyaku Kabushiki Kaisha, priority 2023, dated 2025).
Starred links: 1 amine or outer side, 2 acyl side, 3 side chain; linkers in the order of their positions; H or OH if unused. Positions of bridges follow the written chain, without caps; N, C: chain ends. Non-standard residues stand in square brackets, D forms with d. Residues, ends and D or L forms follow the SMILES beside them. *: point of attachment. NMedβ3hAla = C[C@H](CC(=O)[*:2])N(C)[*:1]; NMeF = CN[C@@H](Cc1ccccc1)C(=O)O; NMeGABA = CN(CCCC(=O)[*:2])[*:1]; NMeI = CC[C@H](C)[C@H](NC)C(=O)O; NMeT = CN[C@H](C(=O)O)[C@@H](C)O; hPhe = N[C@@H](CCc1ccccc1)C(=O)O; NMeD = CN[C@@H](CC(=O)O)C(=O)O; NMeL = CN[C@@H](CC(C)C)C(=O)O; dNMeV = CN[C@@H](C(=O)O)C(C)C; NMeV = CN[C@H](C(=O)O)C(C)C; d(β3hA) = C[C@@H](N)CC(=O)O; NMeAbu = CC[C@H](NC)C(=O)O; NMeA = CN[C@@H](C)C(=O)O; Piperidide = C1CCN(*)CC1; Abu = CC[C@H](N)C(=O)O; NBuGly = CCCCNCC(=O)O; βAla = NCCC(=O)O; Sar = CNCC(=O)O; tBu = CC(C)(C)*

Key:
[1] = Membrane permeability test using Caco-2 cells with preincubation; format: in vitro ADME; conditions: Caco-2; preincubation 20 to 24 hours; Apical FaSSIF/HBSS pH 6.0, Basal HBSS 4% BSA pH 7.4; 180 minutes; read-out: Caco2 Papp
Description: (§1) The permeability coefficient (Caco-2 Papp (cm/sec)) is calculated using a numerical expression 1. [Expression 1] Papp = (1)/(C1 (0) × S) × (dQ)/(dt) [formula] dQ/dt represents the permeation rate of drug (the amount of drug appearing on the Basal side per unit time), S represents the total surface area of cells, and C1(0) represents the concentration of drug added on the Apical side.
(§2) Using a mixed medium of FaSSIF containing 1% DMSO and DMEM as the apical medium, and DMEM as the basal medium, Caco-2 cells and peptide compounds are preincubated for 20 to 24 hours under conditions of 5% CO2, 37°C, and 80 rpm. Afterward, the culture medium on the Apical side and the Basal side are aspirated and washed, the peptide compound was added to a FaSSIF/HBSS buffer solution containing 1% DMSO (1% DMSO) (pH 6.0) at the Apical side, a HBSS buffer solution containing 4% BSA (pH 7.4) was added to the Basal side, and measurement of membrane permeability is started. Each well is shaken under 5% CO2 at 37°C and 80 rpm, and at 180 minutes after the start of shaking, a sample on the Basal side is collected. The amount of peptide compounds in the sample was measured using LCMS, and the membrane permeability coefficient was calculated from the permeation amount (Table 7). When calculating the membrane permeability coefficient (Papp) from the permeation amount, the following expression can be used. Papp = (dQ)/(dt) × (1)/(C1 (0) × S) [formula]
(§3) dQ/dt represents the permeation rate of drug (the amount of drug appearing on the Basal side per unit time), C1(0) represents the concentration of drug added on the Apical side, and S represents the total surface area of cells.

Caco-2 cells = test: as above; format: in vitro ADME; conditions: Caco-2 cells, preincubation 20 to 24 hours; apical FaSSIF/HBSS 1% DMSO pH 6.0, basal HBSS 4% BSA pH 7.4; basal sample at 180 minutes
Description: as §1, §2, §3

[2] = Metabolic stability test: liver microsomal stability assay; format: in vitro ADME, mouse; conditions: mouse liver microsomes 0.5 mg protein/mL, compound 1 µM; for microsomal CLint at 1 µM: male, pH 7.4, presence of NADPH, read-out: Mouse Hepatic Microsome CLh,int NADPH(+); for Mouse Hepatic Microsome CLh,int NADPH(-): absence of NADPH
Description: Under the presence and absence of NADPH, a microsome solution prepared to a concentration of 0.5 mg protein/mL using 100 mM phosphate buffer (pH 7.4) with mouse liver microsomes (male, Corning Incorporated, USA) and the compound at a concentration of 1 µM were subjected to a metabolic reaction for 22 minutes, 44 minutes, or 66 minutes. Protein removal processing was performed over time using acetonitrile, and the remaining amount of unchanged compound was analyzed using LCMS to calculate the intrinsic hepatic clearance (CLh, int) (Table 6).

Row | SMILES | Papp A→B [1] | Caco2 Papp (10^-6 cm/sec) (Caco-2 cells) | microsomal CLint at 1 µM [2] | Mouse Hepatic Microsome CLh,int NADPH(-) [2]
1 | CC[C@H](C)[C@@H]1NC(=O)[C@H](C)N(C)C(=O)[C@H]([C@@H](C)O)NC(=O)[C@H](CC(C)C)N(C)C(=O)[C@H](COC(C)(C)C)NC(=O)[C@H](Cc2ccccc2)N(C)C(=O)[C@H]([C@@H](C)CC)NC(=O)CNC(=O)[C@H](Cc2ccccc2)N(C)C(=O)[C@H](CC(C)C)N(C)C(=O)CCCN(C)C(=O)C[C@@H](C)N(C)C(=O)[C@H](CC(C)C)NC1=O [pd145] (cyclo(GI[NMeF]S(tBu)[NMeL]T[NMeA]IL[NMedβ3hAla][NMeGABA][NMeL][NMeF])) | 0.05 ×10⁻⁶ cm/s | 0.05 10^-6 cm/sec | 35.5 µL/min/mg | 35.7 µL/min/mg Protein
2 | CC[C@@H]1NC(=O)[C@H]([C@@H](C)O)NC(=O)[C@H](Cc2ccccc2)N(C)C(=O)[C@H](CC(C)C)N(C)C(=O)[C@H](C(C)C)N(C)C(=O)[C@H](CC)N(C)C(=O)[C@H]([C@@H](C)CC)NC(=O)[C@H](CC(C)C)N(C)C(=O)[C@H](C)N(C)C(=O)[C@H](C)NC(=O)C[C@@H](C)N(C)C(=O)[C@H](CC(C)C)N(C)C(=O)[C@H](C)N(C)C(=O)CN(C)C1=O [pd072] (cyclo(A[NMeA][NMeL]I[NMeAbu][NMeV][NMeL][NMeF]T[Abu][Sar][NMeA][NMeL][NMedβ3hAla])) | < 0.13 ×10⁻⁶ cm/s | <0.13 10^-6 cm/sec | 22.4 µL/min/mg | 16.6 µL/min/mg Protein
3 | CC[C@@H]1NC(=O)[C@H](CC(C)C)N(C)C(=O)[C@H]([C@@H](C)O)NC(=O)[C@H](C(C)C)N(C)C(=O)[C@H](Cc2ccccc2)N(C)C(=O)[C@@H](C(C)C)NC(=O)C[C@@H](C(=O)N2CCCCC2)N(C)C(=O)CN(C)C(=O)[C@H](Cc2ccccc2)N(C)C(=O)[C@H](C)N(C)C(=O)[C@H](COC(C)(C)C)NC(=O)[C@H](CC(C)C)N(C)C(=O)CN(C)C1=O [pd162] ([dV][NMeF][NMeV]T[NMeL][Abu][Sar][NMeL]S(tBu)[NMeA][NMeF][Sar][NMeD]-Piperidide; lactam N-13) | 0.51 ×10⁻⁶ cm/s | 0.51 10^-6 cm/sec | 12.5 µL/min/mg | 16.3 µL/min/mg Protein
4 | CC[C@H](C)[C@@H]1NC(=O)[C@H](CC(C)C)N(C)C(=O)C[C@@H](C)NC(=O)[C@H](C(C)C)N(C)C(=O)[C@H](COC(C)(C)C)NC(=O)[C@H](CC)N(C)C(=O)[C@H](Cc2ccccc2)N(C)C(=O)[C@H](CC(C)C)NC(=O)[C@@H]2CCCN2C(=O)[C@H]([C@@H](C)O)N(C)C(=O)[C@H](CC(C)C)N(C)C(=O)[C@H](CC)N(C)C(=O)[C@H](C(C)C)N(C)C(=O)[C@H](CC(C)C)N(C)C1=O [pd061] (cyclo(I[NMeL][NMeV][NMeAbu][NMeL][NMeT]PL[NMeF][NMeAbu]S(tBu)[NMeV][d(β3hA)][NMeL])) | 0.51 ×10⁻⁶ cm/s | 0.51 10^-6 cm/sec | 39 µL/min/mg | 39.7 µL/min/mg Protein
5 | CC[C@H](C)[C@@H]1NC(=O)[C@H](Cc2ccccc2)N(C)C(=O)[C@H]([C@@H](C)O)N(C)C(=O)[C@H]([C@@H](C)CC)N(C)C(=O)[C@H](CC(C)C)NC(=O)CN(C)C(=O)[C@H](CC)N(C)C(=O)[C@H](Cc2ccccc2)N(C)C(=O)[C@H](COC(C)(C)C)NC(=O)[C@H](CC(C)C)N(C)C(=O)[C@H](CC(C)C)NC(=O)[C@H](C)N(C)C(=O)C[C@@H](C(=O)N2CCCCC2)N(C)C(=O)[C@H](CC(C)C)N(C)C1=O [pd095] ([NMeA]L[NMeL]S(tBu)[NMeF][NMeAbu][Sar]L[NMeI][NMeT][NMeF]I[NMeL][NMeD]-Piperidide; lactam N-14) | < 0.1 ×10⁻⁶ cm/s | <0.10 10^-6 cm/sec | 25.6 µL/min/mg | 29.2 µL/min/mg Protein
6 | CC[C@H]1C(=O)N(C)[C@H](C)CC(=O)N[C@H](C(C)C)C(=O)N(C)[C@@H](CC(C)C)C(=O)N(C)[C@@H](C(C)C)C(=O)N[C@@H](C)C(=O)N(C)[C@@H](CC(C)C)C(=O)NCC(=O)N(C)[C@@H]([C@@H](C)O)C(=O)N(C)[C@@H](Cc2ccccc2)C(=O)N(C)[C@@H](CC)C(=O)N[C@@H](COC(C)(C)C)C(=O)N(C)[C@@H](C)C(=O)N(C)[C@@H](C(C)C)C(=O)N1C [pd071] (cyclo(A[NMeL]G[NMeT][NMeF][NMeAbu]S(tBu)[NMeA][NMeV][NMeAbu][NMedβ3hAla][dV][NMeL][NMeV])) | 0.22 ×10⁻⁶ cm/s | 0.22 10^-6 cm/sec | 13.3 µL/min/mg | 6.2 µL/min/mg Protein
7 | CC[C@H](C)[C@@H]1NC(=O)[C@H](CC(C)C)N(C)C(=O)[C@H](CC(C)C)NC(=O)[C@H](C)N(C)C(=O)C[C@@H](C)NC(=O)[C@H](CC(C)C)NC(=O)[C@H](CC(C)C)N(C)C(=O)CN(C)C(=O)[C@H](C(C)C)NC(=O)[C@H]([C@@H](C)CC)N(C)C(=O)[C@H](COC(C)(C)C)NC(=O)[C@H](CC(C)C)N(C)C(=O)CCNC(=O)[C@H](Cc2ccccc2)N(C)C1=O [pd007] (cyclo(I[NMeF][βAla][NMeL]S(tBu)[NMeI]V[Sar][NMeL]L[d(β3hA)][NMeA]L[NMeL])) | 0.11 ×10⁻⁶ cm/s | 0.11 10^-6 cm/sec | 40.8 µL/min/mg | 34.9 µL/min/mg Protein
8 | CC[C@H](C)[C@@H]1NC(=O)[C@H](CC(C)C)N(C)C(=O)C[C@@H](C(=O)N2CCCCC2)NC(=O)[C@H](Cc2ccccc2)N(C)C(=O)[C@H](C(C)C)NC(=O)[C@@H]2CCCN2C(=O)[C@H]([C@@H](C)CC)NC(=O)[C@H](CC)N(C)C(=O)[C@H](C(C)C)N(C)C(=O)[C@H](CC(C)C)NC(=O)[C@H](CC(C)C)N(C)C(=O)[C@H]([C@@H](C)O)NC(=O)[C@H](Cc2ccccc2)NC(=O)CN(C)C1=O [pd029] ([NMeL]I[Sar]FT[NMeL]L[NMeV][NMeAbu]IPV[NMeF]D-Piperidide; lactam N-14) | 0.02 ×10⁻⁶ cm/s | 0.02 10^-6 cm/sec | 38.2 µL/min/mg | 36.6 µL/min/mg Protein
9 | CC[C@@H]1NC(=O)CN(C)C(=O)[C@H]([C@@H](C)O)NC(=O)[C@H](CC(C)C)N(C)C(=O)[C@H](C(C)C)NC(=O)[C@H](Cc2ccccc2)N(C)C(=O)[C@H](C)N(C)C(=O)[C@@H](C)NC(=O)C[C@@H](C)NC(=O)[C@H](C(C)C)N(C)C(=O)[C@H](Cc2ccccc2)N(C)C(=O)[C@H](COC(C)(C)C)NC(=O)[C@H](CC(C)C)N(C)C1=O [pd128] (cyclo([Abu][NMeL]S(tBu)[NMeF][NMeV][d(β3hA)][dA][NMeA][NMeF]V[NMeL]T[Sar])) | 0.05 ×10⁻⁶ cm/s | 0.05 10^-6 cm/sec | 18 µL/min/mg | 11.3 µL/min/mg Protein
10 | CCCCN1CC(=O)N(C)[C@@H](CC(C)C)C(=O)N[C@@H](COC(C)(C)C)C(=O)N(C)[C@@H](Cc2ccccc2)C(=O)N(C)[C@@H](C)C(=O)N(C)[C@@H](C(C)C)C(=O)N[C@H](C(=O)N2CCCCC2)CC(=O)N(C)[C@H](C(C)C)C(=O)N(C)[C@@H](Cc2ccccc2)C(=O)N2CCC[C@H]2C(=O)N(C)[C@@H](C(C)C)C(=O)N(C)[C@@H](CC(C)C)C(=O)N[C@@H]([C@@H](C)O)C1=O [pd123] ([dNMeV][NMeF]P[NMeV][NMeL]T[NBuGly][NMeL]S(tBu)[NMeF][NMeA][NMeV]D-Piperidide; lactam N-13) | 0.56 ×10⁻⁶ cm/s | 0.56 10^-6 cm/sec | 31 µL/min/mg | 36.0 µL/min/mg Protein
11 | CC[C@@H]1NC(=O)[C@H](Cc2ccccc2)N(C)C(=O)[C@H](COC(C)(C)C)NC(=O)[C@H](CC(C)C)N(C)C(=O)[C@H](C)N(C)C(=O)[C@H]([C@@H](C)O)NC(=O)[C@H](CC(C)C)N(C)C(=O)[C@H](C(C)C)N(C)C(=O)[C@H](CCc2ccccc2)NC(=O)[C@H](CC(C)C)N(C)C(=O)[C@@H](C(C)C)N(C)C(=O)C[C@@H](C(=O)N2CCCCC2)N(C)C(=O)[C@H](CC(C)C)NC(=O)[C@H](C(C)C)N(C)C1=O [pd089] ([dNMeV][NMeL][hPhe][NMeV][NMeL]T[NMeA][NMeL]S(tBu)[NMeF][Abu][NMeV]L[NMeD]-Piperidide; lactam N-14) | < 0.11 ×10⁻⁶ cm/s | <0.11 10^-6 cm/sec | 29 µL/min/mg | 29.8 µL/min/mg Protein
